Experimental data from ChEMBL document CHEMBL4118170, “Alkylsulfanyl analogs as potent α2δ ligands” (Bioorg Med Chem Lett, 2018).

Legend:
[1] = molecular target: Voltage-dependent calcium channel subunit alpha-2/delta-1 (Homo sapiens) (UniProt P54289); experiment: Displacement of [3H]gabapentin from human voltage-gated Ca2+ channel alpha2delta1 subunit expressed in HEK293A cell membranes after 30 mins by liquid scintillation counting method
Mus musculus [2] = experiment: Analgesic activity in db/db mouse mechanical hyperalgesia model assessed as reversal of mechanical hyperalgesia at 100 mg/kg, po pretreated for 2 hrs by Von Frey test relative to control; assay type: functional
[3] = Cmax in mouse at 10 mg/kg, po or 5 mg/kg, iv; assay type: ADME, organism-based; details: in vivo
[4] = Half life in mouse at 10 mg/kg, po or 5 mg/kg, iv; assay type: ADME, organism-based; details: in vivo
Mus musculus [5] = experiment: AUC in mouse at 10 mg/kg, po or 5 mg/kg, iv; assay type: ADME, organism-based; details: in vivo
[6] = Clearance in mouse at 10 mg/kg, po or 5 mg/kg, iv; assay type: ADME, organism-based; details: in vivo
[7] = Oral bioavailability in mouse at 10 mg/kg; assay type: ADME, organism-based; details: in vivo
Rattus norvegicus [8] = experiment: Analgesic activity in STZ-induced diabetic rat model assessed as pain threshold AUC (0 to 8 hrs) at 10 mg/kg, po by Von Frey test; assay type: functional, organism-based; set-up: dose 10 mg/kg, time < 8 hr
Rattus norvegicus [9] = experiment: Analgesic activity in STZ-induced diabetic rat model assessed as pain threshold AUC (0 to 8 hrs) at 30 mg/kg, po by Von Frey test; assay type: functional, organism-based; set-up: time < 8 hr, dose 30 mg/kg
Mus musculus [10] = experiment: Effect on motor coordination in mouse at 30 mg/kg, po measured over 120 secs at 2 hrs post drug administration by rota rod test; assay type: ADME, organism-based; details: in vivo
Mus musculus [11] = experiment: Effect on motor coordination in mouse at 100 mg/kg, po measured over 120 secs at 2 hrs post drug administration by rota rod test; assay type: ADME, organism-based; details: in vivo
Rattus norvegicus [12] = experiment: Analgesic activity in STZ-induced diabetic rat model assessed as pain threshold AUC (0 to 8 hrs) at 50 mg/kg, po by Von Frey test; assay type: functional, organism-based; set-up: time < 8 hr, dose 50 mg/kg

Sequence of Voltage-dependent calcium channel subunit alpha-2/delta-1 (Homo sapiens) (P54289 25-956 limits assumed): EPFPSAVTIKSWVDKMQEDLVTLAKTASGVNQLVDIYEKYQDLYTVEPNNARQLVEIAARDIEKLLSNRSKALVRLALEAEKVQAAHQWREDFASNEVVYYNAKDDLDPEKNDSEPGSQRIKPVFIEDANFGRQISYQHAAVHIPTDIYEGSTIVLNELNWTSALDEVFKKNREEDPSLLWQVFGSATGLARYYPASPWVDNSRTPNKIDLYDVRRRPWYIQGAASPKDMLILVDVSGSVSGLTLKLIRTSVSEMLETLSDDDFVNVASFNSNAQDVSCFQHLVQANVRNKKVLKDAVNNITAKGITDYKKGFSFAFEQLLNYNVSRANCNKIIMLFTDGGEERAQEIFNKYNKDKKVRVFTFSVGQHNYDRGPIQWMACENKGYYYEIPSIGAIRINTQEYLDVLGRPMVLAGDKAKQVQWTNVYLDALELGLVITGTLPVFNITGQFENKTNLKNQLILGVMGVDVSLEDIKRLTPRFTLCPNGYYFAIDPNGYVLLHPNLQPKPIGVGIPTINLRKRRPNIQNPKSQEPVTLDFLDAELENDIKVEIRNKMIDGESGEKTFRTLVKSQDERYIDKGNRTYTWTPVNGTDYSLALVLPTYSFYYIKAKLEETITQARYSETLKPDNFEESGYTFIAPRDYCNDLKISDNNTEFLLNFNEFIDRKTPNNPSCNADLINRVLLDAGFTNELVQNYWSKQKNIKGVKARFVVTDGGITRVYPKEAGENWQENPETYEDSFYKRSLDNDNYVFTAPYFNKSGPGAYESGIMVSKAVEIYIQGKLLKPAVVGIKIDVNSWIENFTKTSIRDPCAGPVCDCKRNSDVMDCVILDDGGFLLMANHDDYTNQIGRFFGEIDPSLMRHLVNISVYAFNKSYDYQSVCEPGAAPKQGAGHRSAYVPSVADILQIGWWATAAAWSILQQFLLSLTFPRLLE
Sequence of Voltage-dependent calcium channel subunit alpha-2/delta-1 (Homo sapiens) (P54289 957-1103 limits assumed): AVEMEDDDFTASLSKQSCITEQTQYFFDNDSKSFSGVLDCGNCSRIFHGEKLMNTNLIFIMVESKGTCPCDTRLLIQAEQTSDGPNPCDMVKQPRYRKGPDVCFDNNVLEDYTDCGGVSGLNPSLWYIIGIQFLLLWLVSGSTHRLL

| SMILES | displacement potency (concentration) [1] | Activity (Mus musculus [2]) | Cmax [3] | half-life [4] | AUC (Mus musculus [5]) | clearance [6] | bioavailability [7] | further results |
| --- | --- | --- | --- | --- | --- | --- | --- | --- |
| CSC(C)C(CN)CC(=O)O (centres undefined) | 240 nM | 9% | – | – | – | – | – | – |
| CCSC(C)CC(CN)CC(=O)O (centres undefined) | 200 nM | 43% | – | – | – | – | – | – |
| CCS[C@@H](C)C[C@H](CN)CC(=O)O | 20 nM | 90% | 5610 ng/mL | 2.09 h | 8140 ng·h/mL | 5.78 mL/min/kg | 28% | AUC (Rattus norvegicus [8]): 6.3 g·h; AUC (Rattus norvegicus [9]): 19 g·h; Activity (Mus musculus [10]): Toxic; Activity (Mus musculus [11]): Toxic |
| COCC(CN)CC(=O)O (racemic) | 3200 nM | – | – | – | – | – | – | – |
| COCCC(CN)CC(=O)O (racemic) | 240 nM | 17% | – | – | – | – | – | – |
| CC(C)SCC(CN)CC(=O)O (centres undefined) | 19000 nM | – | – | – | – | – | – | – |
| CC(C)C[C@H](CN)CC(=O)O [PREGABALIN] | 39 nM | 98% | 1340 ng/mL | 2.54 h | 18900 ng·h/mL | 7.77 mL/min/kg | 88% | AUC (Rattus norvegicus [8]): 5.8 to 17 g·h; AUC (Rattus norvegicus [9]): 18 to 27 g·h; Activity (Mus musculus [10]): Toxic; Activity (Mus musculus [11]): Toxic |
| CCOC(C)CC(CN)CC(=O)O (centres undefined) | 970 nM | 22% | – | – | – | – | – | – |
| COCC(C)C(CN)CC(=O)O (centres undefined) | 160 nM | 10% | – | – | – | – | – | – |
| CSCCC(CN)CC(=O)O (racemic) | 480 nM | 12% | – | – | – | – | – | – |
| CS[C@@H](C)C[C@@H](CN)CC(=O)O | 290 nM | 0% | 1610 ng/mL | 5.8 h | 3020 ng·h/mL | 23.8 mL/min/kg | 45% | – |
| CS[C@H](C)C[C@@H](CN)CC(=O)O | 720 nM | 3% | 3590 ng/mL | 4.42 h | 5800 ng·h/mL | 31.7 mL/min/kg | 100% | – |
| CCS[C@H](C)C[C@H](CN)CC(=O)O | 290 nM | 3% | – | – | – | – | – | – |
| CS[C@H](C)C[C@H](CN)CC(=O)O | 620 nM | 4% | 6220 ng/mL | 4.52 h | 9980 ng·h/mL | 17.5 mL/min/kg | 100% | – |
| CS[C@@H](C)C[C@H](CN)CC(=O)O | 48 nM | 80% | 5190 ng/mL | 2.4 h | 12500 ng·h/mL | 17.6 mL/min/kg | 100% | AUC (Rattus norvegicus [12]): 18 g·h; AUC (Rattus norvegicus [9]): 10 g·h; Activity (Mus musculus [10]): Non-Toxic; Activity (Mus musculus [11]): Toxic |
| COC(C)CC(CN)CC(=O)O (centres undefined) | 410 nM | 4% | – | – | – | – | – | – |
| CSC(C)CC(CN)CC(=O)O (mixture of isomers) | 170 nM | 64% | – | – | – | – | – | – |
| CSCC(CN)CC(=O)O (racemic) | 1000 nM | 9% | – | – | – | – | – | – |
| CCSCC(CN)CC(=O)O (racemic) | 1900 nM | – | – | – | – | – | – | – |
| CSCC(C)C(CN)CC(=O)O (centres undefined) | 150 nM | 2% | – | – | – | – | – | – |
